This passage reports Ki results from patent publication US5574031A, “Piperazine carboxamides” (priority 1992, dated 1996).

Structures can show the parent of a compound that is named as a salt.

One test concerns the target T1, D2 -receptors (Rattus norvegicus, UniProt P61169).
T1 construct: from tissue
As to the kind of experiment: Affinity to D2-receptors (3H-spiroperidol binding). The conditions noted are these: 3H-spiroperidol as ligand. As to the method:
Test 2 Affinity to D2 -receptors.
The binding assay is carried out essentially as described by Leysen et al. (Mol. Pharmacol. 21,301-14, 1982) using ^3 H-spiroperidol as ligand.

The target in another test is T2, 5-HT2 receptors (Rattus norvegicus, UniProt P14842).
T2 construct: from tissue
As to the kind of experiment: Affinity to 5-HT2 receptors (3H-ketanserin binding). The conditions noted are these: 3H-ketanserin as ligand. As to the method:
Test 1. Affinity to 5-HT2 receptors
The binding assay is carried out essentially as described by Leysen et al. (Mol. Pharmacol. 21,301-14, 1982) using ^3 H-ketanserin as ligand.

T2 sequence (P14842 whole entry): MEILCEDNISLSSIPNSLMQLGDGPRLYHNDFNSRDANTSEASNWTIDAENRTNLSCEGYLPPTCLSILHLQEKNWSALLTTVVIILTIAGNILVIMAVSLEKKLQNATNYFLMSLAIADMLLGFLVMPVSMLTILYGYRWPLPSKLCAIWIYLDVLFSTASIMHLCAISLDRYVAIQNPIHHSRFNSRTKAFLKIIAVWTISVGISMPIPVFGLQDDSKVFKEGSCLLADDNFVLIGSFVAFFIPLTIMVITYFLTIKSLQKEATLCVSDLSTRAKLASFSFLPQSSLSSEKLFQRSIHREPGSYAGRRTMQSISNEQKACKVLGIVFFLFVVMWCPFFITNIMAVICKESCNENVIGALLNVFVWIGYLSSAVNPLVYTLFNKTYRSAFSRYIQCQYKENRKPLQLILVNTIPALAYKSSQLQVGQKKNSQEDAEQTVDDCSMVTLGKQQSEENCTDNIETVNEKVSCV
T1 sequence (P61169 whole entry): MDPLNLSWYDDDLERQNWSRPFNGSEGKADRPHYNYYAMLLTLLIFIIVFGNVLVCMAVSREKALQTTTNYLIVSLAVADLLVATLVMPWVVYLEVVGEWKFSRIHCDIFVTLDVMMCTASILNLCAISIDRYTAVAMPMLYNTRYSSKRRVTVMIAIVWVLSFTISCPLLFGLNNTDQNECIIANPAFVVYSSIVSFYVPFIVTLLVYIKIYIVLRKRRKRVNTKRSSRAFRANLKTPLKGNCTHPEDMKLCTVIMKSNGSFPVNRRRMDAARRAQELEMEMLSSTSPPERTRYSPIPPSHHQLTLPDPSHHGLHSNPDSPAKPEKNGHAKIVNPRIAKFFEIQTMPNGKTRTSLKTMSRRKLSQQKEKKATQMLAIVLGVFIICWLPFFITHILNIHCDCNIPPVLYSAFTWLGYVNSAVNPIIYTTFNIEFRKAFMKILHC

Turning to `CCNC(=O)N1CCN(CCCC(c2ccc(F)cc2)c2ccc(F)cc2)CC1` [Amperozide, reference compound], the values for the Ki at D2 -receptors and on 5-HT2 receptors were 540 nM and 17 nM, respectively.

With `O=C(N1CCCC1)N1CCN(CCOC(c2ccc(F)cc2)c2ccc(F)cc2)CC1` [6:2, 1-[2-[(4,4'-Difluorobenzhydryl)oxy]ethyl]-4-(pyrrolidino-carbonyl)piperazine hydrochloride], the Ki at D2 -receptors turned out to be 1780 nM; on 5-HT2 receptors, 15 nM.

For `CNC(=S)N1CCN(CCOC(c2ccc(F)cc2)c2ccc(F)cc2)CC1` [3:4, 4-[2-[(4,4'Difluorobenzhydryl)oxy]-ethyl]-N-methyl-1-piperazinethiocarboxamide hydrochloride], the Ki at D2 -receptors turned out to be 1600 nM; on 5-HT2 receptors, 20 nM.

As for `CCNC(=O)N1CCN(CCOC(c2ccc(F)cc2)c2ccc(F)cc2)CC1` [3:1, 4-[2-[(4,4'Difluorobenzhydryl)oxy]-ethyl]-N-ethyl-1-piperazinecarboxamide hydrochloride], the Ki at D2 -receptors is over 10000 nM; on 5-HT2 receptors, 60 nM.
